Activity calls are given as the source filed them. The rule behind the calls is not given here.
Biological target: Peptidyl-prolyl cis-trans isomerase FKBP1A (Homo sapiens) (UniProt P62942)
Assay: small-molecule binding to FKBP12 – biophysical, NMR detection (AID 608)
Settings: purified FKBP12

Sequence of Peptidyl-prolyl cis-trans isomerase FKBP1A (Homo sapiens) (P62942 whole entry, looked up): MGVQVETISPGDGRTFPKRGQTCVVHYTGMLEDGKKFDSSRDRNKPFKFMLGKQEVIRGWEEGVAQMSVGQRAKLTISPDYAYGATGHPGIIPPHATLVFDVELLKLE

SMILES | Kd
CC(=O)c1cc(-c2nc3ccccc3n2C)n(C)c1 | > 4 mM (inactive)
CC(C)Oc1ccc(NC(N)=O)cc1 | > 4 mM (inactive)
CCOC(=O)c1c(C)nc2sccn12 | > 4 mM (inactive)
CC1(C)Oc2ccc(N)cc2O1 | > 4 mM (inactive)
CCC(C)C(NC)C(=O)O (stereo unspecified) | > 4 mM (inactive)
C[C@H](CCC(=O)O)[C@H]1CCC2C3C(CC[C@@]21C)[C@@]1(C)CC[C@@H](O)C[C@H]1C[C@@H]3O (stereo partly specified) | > 4 mM (inactive)
Cc1occc1C(=O)NCc1ccncc1 | > 4 mM (inactive)
C=C1C(=O)O[C@@H]2C3OC3(C)CC/C=C(\C)CC[C@@H]12 (stereo partly specified) | > 4 mM (inactive)
COC1=CC(C)[C@@H]2C[C@H]3OC(=O)C[C@H]4C(C)=C(OC)C(=O)C([C@@]34C)[C@@]2(C)C1=O (stereo partly specified) | > 4 mM (inactive)
O=C1CCNc2ccccc2N1 | > 4 mM (inactive)
CCNS(=O)(=O)c1ccc(OC)c(C)c1 | > 4 mM (inactive)
COc1ccc(-c2coc3cc(O)ccc3c2=O)cc1 | > 4 mM (inactive)
COc1cc2c(c(OC)c1OC)-c1ccc(O)c(=O)cc1[C@@H](NC(C)=O)CC2 | > 4 mM (inactive)
COc1cc(C/C=C/c2ccccc2)c(OC)cc1O | > 4 mM (inactive)
Cc1ccc(OCC(=O)n2cnnc2N)c(C)c1 | > 4 mM (inactive)
Cc1cc(=O)n(C(N)=S)[nH]1 | > 4 mM (inactive)
CC1(C)CC(=O)c2sc(N)nc2C1 | > 4 mM (inactive)
COC(=O)C1CCc2ccccc2N1 (stereo unspecified) | > 4 mM (inactive)
O=C1CCCC(=O)N1Cc1ccco1 | > 4 mM (inactive)
c1ccc(-n2ncc3c(NCc4ccco4)ncnc32)cc1 | > 4 mM (inactive)
O=CN1CCN(C(=O)c2ccco2)CC1 | > 4 mM (inactive)
Cc1cccc(-n2c(N)cc(=O)[nH]c2=S)c1 | > 4 mM (inactive)
CC1(C)CC(NC(=O)/C=C/C(=O)O)CC(C)(C)N1 | > 4 mM (inactive)
O=C1NC(=O)C(=Cc2cccs2)C(=O)N1 | > 4 mM (inactive)
CC1=NN(c2ccc(C)cc2)C(=O)C1 | > 4 mM (inactive)

SMILES | Kd
COc1ccc(Cl)cc1-c1n[nH]c(=S)n1C | > 4 mM (inactive)
CCOC(=O)N1CCCC1c1cccnc1 (stereo unspecified) | > 4 mM (inactive)
CC(=O)c1cccc(NC(=O)N2CCc3ccccc3C2)c1 | > 4 mM (inactive)
COc1cc2ccc(=O)oc2c2ccoc12 | > 4 mM (inactive)
Cc1ccc2[nH]cc(CCN)c2c1 | > 4 mM (inactive)
Cc1ccc(NS(=O)(=O)N2CCOCC2)cc1Cl | inactive
O=C1CCC(=O)N1c1ccc(O)cc1 | > 4 mM (inactive)
Cc1cccc(C)c1N1C(=O)CCC1=O | > 4 mM (inactive)
O=c1cnnc(N2CCCCC2)[nH]1 | > 4 mM (inactive)
CNC(=O)c1ccc([N+](=O)[O-])cc1Cl | > 4 mM (inactive)
Cn1c(=O)n(C)c2cc(C(N)=O)ccc21 | > 4 mM (inactive)
Cc1ccc(NS(=O)(=O)N2CCOCC2)c(C)c1 | > 4 mM (inactive)
O=C1c2cccnc2C(=O)N1Cc1ccc2c(c1)OCO2 | > 4 mM (inactive)
CC(CCC(=O)O)[C@H]1CCC2C3C(C[C@H](O)[C@@]21C)[C@@]1(C)CC[C@@H](O)C[C@H]1C[C@H]3O (stereo partly specified) | > 4 mM (inactive)
Cn1c(=O)n(C)c2nc([N+](=O)[O-])c(Cl)cc21 | > 4 mM (inactive)
O=C(O)CN1C(=O)c2cccc([N+](=O)[O-])c2C1=O | > 4 mM (inactive)
NN1C(=O)/C(=C/c2ccc(O)c(O)c2)SC1=S | > 4 mM (inactive)
CNS(=O)(=O)c1cccs1 | > 4 mM (inactive)
Cc1cccc(C)c1NC(=O)CN1CCOCC1 | > 4 mM (inactive)
Cc1csc(NC(=O)c2cccs2)n1 | > 4 mM (inactive)
O=C(c1sc2cc(Cl)cc(Cl)c2c1Cl)N1CCOCC1 | inactive
CC(=O)c1ccc2c(c1)OCCO2 | > 4 mM (inactive)
O=C(O)C1=Cc2ccccc2OC1 | > 4 mM (inactive)
Cc1c(C(=O)O)cnn1-c1ccccc1 | > 4 mM (inactive)
S=C(NCC1CCCO1)NC1CC1 (stereo unspecified) | > 4 mM (inactive)

SMILES | Kd
Cc1noc(C)c1C(=O)Nc1sc(C)c(C)c1C#N | > 4 mM (inactive)
O=C(Nc1ccccn1)C(=O)N1CCCC1 | > 4 mM (inactive)
COC(=O)c1c(C)cc(OC)cc1O | > 4 mM (inactive)
O=C(O)CCN1CCc2ccccc2C1c1ccncc1 (stereo unspecified) | > 4 mM (inactive)
CC(C)=CC(=O)Nc1ccccc1C(N)=O | > 4 mM (inactive)
Cc1cc(C)cc(C(=O)n2cnnc2N)c1 | > 4 mM (inactive)
c1ccc(Cc2nnc3sc(-c4ccncc4)nn23)cc1 | > 4 mM (inactive)
O=C(c1sc2cc([N+](=O)[O-])ccc2c1Cl)N1CCOCC1 | inactive
Fc1ccc(Cn2c(-c3cscn3)nc3ccccc32)c(Cl)c1 | inactive
NC(=O)c1ccc(-c2csnn2)cc1 | > 4 mM (inactive)
OC1CNCc2cc3c(cc21)OCCO3 (stereo unspecified) | > 4 mM (inactive)
C[C@H]1C(=O)CCC2[C@]3(C)CC[C@@]4(C)C5CC(C)(C)CC[C@]5(C)CC[C@]4(C)C3CC[C@@]21C (stereo partly specified) | > 4 mM (inactive)
NC(=O)CSc1nc2ncnc(N)c2[nH]1 | > 4 mM (inactive)
O=C1CC(c2ccccc2)n2ncnc2N1 (stereo unspecified) | > 4 mM (inactive)
O=C(NC1CC1)c1ccccc1[N+](=O)[O-] | > 4 mM (inactive)
Cc1cc(=O)[nH]c(NCc2cccnc2)n1 | > 4 mM (inactive)
CS(=O)(=O)N1CCN(C(=O)Cc2cccs2)CC1 | > 4 mM (inactive)
Fc1ccc(-c2n[nH]c(=S)n2CC2CCCO2)cc1 (stereo unspecified) | > 4 mM (inactive)
CC(C)c1ccc(SCC(=O)O)cc1 | > 4 mM (inactive)
Nc1nncn1C(=O)c1c(Cl)cccc1Cl | > 4 mM (inactive)
[O-][n+]1onc2c1CCc1c-2nc(-c2ccccc2)n1O | > 4 mM (inactive)
Cc1ccc(C(=O)NC2=NCCS2)o1 | > 4 mM (inactive)
OCc1ccccc1O[C@@H]1O[C@H](CO)[C@@H](O)[C@H](O)[C@H]1O | > 4 mM (inactive)
CCOc1ccc(Cl)cc1S(=O)(=O)N1CCCC1 | > 4 mM (inactive)
COC(=O)C1=CO[C@@H](O[C@@H]2O[C@H](CO)[C@@H](O)[C@H](O)[C@H]2O)[C@@H]2[C@@H](C)[C@@H](O)C[C@H]12 | > 4 mM (inactive)

SMILES | Kd
Cc1oc(-c2ccccc2)nc1CC(=O)O | > 4 mM (inactive)
Cc1noc(C)c1C(=O)N1CCC(Cc2ccccc2)CC1 | > 4 mM (inactive)
Cc1cc2c(N)cccc2nn1 | > 4 mM (inactive)
O=C(O)c1ccc(-n2ccnc2)cc1 | > 4 mM (inactive)
Cc1cc(=O)n2[nH]cnc2n1 | > 4 mM (inactive)
O=c1c(-c2cccs2)[n+]([O-])c2ccccc2n1O | > 4 mM (inactive)
O=C(OCc1c(F)cccc1Cl)c1cnccn1 | > 4 mM (inactive)
Nc1cccc(-n2cccc2)c1 | > 4 mM (inactive)
NC(=O)CCn1ncc2ccccc21 | > 4 mM (inactive)
COc1ccccc1C(=O)Nc1ccccn1 | > 4 mM (inactive)
O=C(Nc1ccc2c(c1)OCO2)c1cccs1 | > 4 mM (inactive)
CN(C)S(=O)(=O)c1ccccc1C#N | > 4 mM (inactive)
CC1CC[C@]2(NC1)O[C@H]1CC3C4CC[C@H]5C[C@@H](O)CC[C@]5(C)C4CC[C@]3(C)[C@H]1[C@@H]2C (stereo partly specified) | > 4 mM (inactive)
S=c1nc(Cc2ccccc2)[nH][nH]1 | > 4 mM (inactive)
CCOC(=O)CC1Sc2ccccc2NC1=S (stereo unspecified) | > 4 mM (inactive)
NC(=O)CSc1nc2ccccc2o1 | > 4 mM (inactive)
Cc1cc(N(CN2CCCC2=O)C(=O)c2ccccc2)no1 | > 4 mM (inactive)
Cc1nnc(SCC(N)=O)c2ccccc12 | > 4 mM (inactive)
CCCc1cc2c(c(NC(C)=O)n1)c(=O)oc1ccccc12 | > 4 mM (inactive)
CN(C(=O)c1cc2cccnc2n(C)c1=O)c1ccccc1 | > 4 mM (inactive)
N#C/C(=C\c1ccc[nH]1)S(=O)(=O)c1ccccc1 | > 4 mM (inactive)
O=C(Nc1cccnc1)c1cccs1 | > 4 mM (inactive)
Cn1c(=O)c2[nH]c(Nc3ccccc3)nc2n(C)c1=O | > 4 mM (inactive)
COc1ccc(OCC(=O)N2CCOCC2)cc1 | inactive
NC(=O)c1ccccc1N=Cc1ccco1 | > 4 mM (inactive)

SMILES | Kd
CC(=O)Nc1ccc(S(=O)(=O)NCC2CCCO2)cc1 (stereo unspecified) | > 4 mM (inactive)
O=[n+]1c2c(n([O-])c3ccccc31)CCCC2 | > 4 mM (inactive)
CC1(C)Cc2c(c(-c3ccco3)[nH]c(=O)c2C#N)CO1 | > 4 mM (inactive)
Nc1nnc(SCc2ccc(F)cc2)s1 | > 4 mM (inactive)
O=C1CCCN1C(=O)c1ccc(F)cc1 | > 4 mM (inactive)
C=CCCCCCCCCCCCC(O)CC(O)COC(C)=O (stereo unspecified) | > 4 mM (inactive)
c1cc(CNc2ccc3c(c2)OCCO3)ccn1 | > 4 mM (inactive)
CC(C)CC(=O)Nc1c[nH]c(=O)[nH]c1=O | > 4 mM (inactive)
Cc1ccc(S(=O)(=O)CCc2ccccn2)cc1 | > 4 mM (inactive)
O=C(CN1CCOCC1)Nc1nccs1 | > 4 mM (inactive)
Cc1cc(OC(=O)c2ccco2)c([N+](=O)[O-])c(=O)[nH]1 | > 4 mM (inactive)
Nc1nsc(-c2ccccc2)n1 | > 4 mM (inactive)
Cn1c(=O)n(-c2cccc(Cl)c2)c(=O)n1C | > 4 mM (inactive)
Cc1cc(=O)cc(C)n1NC(N)=S | > 4 mM (inactive)
O=C(O)c1ccc(-c2cccs2)s1 | > 4 mM (inactive)
Cc1occc1C(=O)N1CCN(S(C)(=O)=O)CC1 | > 4 mM (inactive)
COc1ccc2cc3[n+](cc2c1OC)CCc1cc2c(cc1-3)OCO2 | > 4 mM (inactive)
Cc1cc(C)cc(NS(=O)(=O)N2CCOCC2)c1 | inactive
O=C1c2ccc(F)cc2C(=O)N1CO | > 4 mM (inactive)
CNC(=O)Oc1ccc2c(c1)[C@]1(C)CCN(C)[C@@H]1N2C | > 4 mM (inactive)
CC(C)CCCC(C)C1CCC2C3=CC[C@H]4C[C@@H](O)CC[C@]4(C)C3CC[C@@]21C (stereo partly specified) | > 4 mM (inactive)
